Patent US10695311B2, “Solution for ophthalmology” (priority 2016, dated 2020)

What was measured:
[1] = test system: lens capsule and hemidesmosomes; assay: Studies by the inventor with lysine solutions (lens capsule / hemidesmosomes); conditions: lysine solutions having a lower concentration
[2] = test system: zonula fibers and posterior capsule of donor eyes; assay: Experiments on donor eyes; conditions: the corneas of which were used for cornea transfers, L-lysine in the concentration indicated above (0.5-3.5 wt.-%)
Description: (§1) The surgical result is therefore permanent; further procedures for treatment of possible capsule fibrosis are rarely or never necessary. The solution according to the invention can be used with every phacoemulsification, with or without lens implantation, to clean the posterior capsule. In this regard, the solution according to the invention can be produced from commercially available L-lysine. In particular, the solution can be present as a flushing solution.

lens capsule = assay: Surgical studies within the scope of extracapsular procedures; format: in vivo; conditions: L-lysine concentrations of up to 5%
Description: as §1
When performing the extracapsular operation, it has proven to be practical to apply 1 to 5 ml of the L-lysine according to the invention to the posterior capsule after removal of the cloudy lens core and the subcapsular cortex layer (Cortex lentis), using an anterior-chamber cannula. After a sufficient period of action, the solution is suctioned away and rinsed off. In this regard, the period of action is primarily dependent on the concentration of the solution. For a solution with a concentration of 2 wt.-%, it lies between 30 s and 5 min, preferably at approximately 1 min. The period of action should not amount to more than 5 min, preferably not more than 3 min.

## NCCCC[C@H](N)C(=O)O [L-lysine]
[1]
  damage to the lens capsule: damage to the lens capsule does not occur
  digestion of the hemidesmosomes: digestion of the hemidesmosomes still takes place to a sufficient extent
[2]
  attack on zonula fibers and posterior capsule: neither the zonula fibers nor the posterior capsule are attacked
Lens capsule
  integrity of lens capsule during and after the procedure: the lens capsule remained intact during and after the procedure
  prevention of capsule fibrosis after the procedures: it was possible to prevent capsule fibrosis after the procedures
